Format in all cases: functional
For experiment [1], the system named is Rattus norvegicus. As to the kind of experiment: Percent inhibition against pentagastrin-stimulated acid secretion upon intraperitoneal administration of 10 mg/kg dose to urethane anesthetized rats. The settings on record: ip.
Experiment [2] concerns Rattus norvegicus. The experiment in a line: Percentage dose required to prevent lesion formation in gastric mucosa of unanesthetized rats upon intraperitoneal administration of 3 mg/kg dose in the HCl/ethanol-induced lesion model. The conditions noted are these: ip.
Experiment [3] deals with Rattus norvegicus. The experiment in a line: Percentage dose required to prevent lesion formation in gastric mucosa of unanesthetized rats upon intraperitoneal administration of 10 mg/kg dose in the HCl/ethanol-induced lesion model. The conditions noted are these: ip.
Experiment [4] relates to Rattus norvegicus. As to the kind of experiment: Percentage dose required to prevent lesion formation in gastric mucosa of unanesthetized rats upon intraperitoneal administration of 1 mg/kg dose in the HCl/ethanol-induced lesion model. The conditions noted are these: ip.
The subject of experiment [5] is Rattus norvegicus. The experiment in a line: Percentage dose required to prevent lesion formation in gastric mucosa of unanesthetized rats upon intraperitoneal administration 30 min prior to an oral dose of HCl/ethanol.
The test system of experiment [6] is Rattus norvegicus. As to the kind of experiment: Dose required to prevent lesion formation in gastric mucosa of unanesthetized rats upon subcutaneous administration.

As a reminder, the inhibition in vivo is the relative decrease from the control value, in per cent. A higher inhibition in vivo goes with strong suppression.

Regarding `CO[C@@H]1C[C@H](O[C@@H]2C=C(C)C[C@@]3(O)[C@H](OC(C)=O)[C@H](O)C4=C(C(=O)c5ccc([C@H]6C[C@@H](O[C@H]7C[C@](C)(O)[C@H](O[C@H]8CC[C@H](NC(N)=O)[C@@H](C)O8)[C@@H](C)O7)[C@H](O)[C@@H](C)O6)c(O)c5C4=O)[C@@]23O)O[C@@H](C)[C@H]1O` [COMPOUND P371 A], the inhibition in vivo at 10 mg/kg in the experiment with Rattus norvegicus [1] came to 61%; in the experiment with Rattus norvegicus [3] it was 83.6%. Besides, in the experiment on Rattus norvegicus [2], the inhibition in vivo at 3 mg/kg came to 81.6%. In the experiment on Rattus norvegicus [4], this molecule had an inhibition in vivo at 1 mg/kg of 52.6%. In the experiment with Rattus norvegicus [5], the “% dose” value amounted to 60%.
As to `COc1ccc2c(c1)c(CC(=O)O)c(C)n2C(=O)c1ccc(Cl)cc1` [INDOMETHACIN], at 3 mg/kg the inhibition in vivo in the experiment on Rattus norvegicus [2] was 64.9%. The Dose with Rattus norvegicus [6] is 25 mg/kg. This molecule also showed an inhibition in vivo at 10 mg/kg in the experiment on Rattus norvegicus [3] of 72.8%. Also, testing at 1 mg/kg in the experiment with Rattus norvegicus [4] gave an inhibition in vivo of 57%.

The values are drawn from ChEMBL document CHEMBL1130902, “Novel angucycline compound with both antigastrin- and gastric mucosal protective-activities” (1998).
